Assay results published in ChEMBL document CHEMBL4184222, “A multifaceted approach to identify non-specific enzyme inhibition: Application to Mycobacterium tuberculosis shikimate kinase” (Bioorg Med Chem Lett, 2018).
pIC50: −log10 of the molar value. In brackets after ≈: the same amount, converted by molar mass.

Experiments:
[1] = Aggregation property of the compound in potassium phosphate buffer at pH 7.2 assessed as micelle formation by measuring peal broadening at 6.25 to 200 uM by one-dimensional 1H-NMR spectroscopy; assay type: physicochemical; conditions: pH 7.2, 200 µM
[2] = tested on: Mycobacterium tuberculosis; assay: Inhibition of Mycobacterium tuberculosis shikimate kinase assessed as reduction in S3P production at <50 uM pre-incubated for 30 mins before ATP and shikimate substrate addition by LC-MS assay
[3] = Inhibition of Mycobacterium tuberculosis shikimate kinase assessed as reduction in S3P production pre-incubated for 30 mins before ATP and shikimate substrate addition by LC-MS assay
[4] = tested on: Mycobacterium tuberculosis; assay: Antimycobacterial activity against Mycobacterium tuberculosis H37Rv; assay type: functional
[5] = Aggregation property of the compound in ammonium acetate buffer at pH 7.6 assessed as light scattering intensity counts at 100 uM in absence of Triton X-100 by dynamic light scattering method; assay type: physicochemical; conditions: pH 7.6, 100 µM
[6] = Aggregation property of the compound in ammonium acetate buffer at pH 7.6 assessed as particle size at 100 uM in absence of Triton X-100 by dynamic light scattering method; assay type: physicochemical; conditions: pH 7.6, 100 µM
[7] = Aggregation property of the compound in ammonium acetate buffer at pH 7.6 assessed as light scattering intensity counts at 100 uM in presence of Triton X-100 by dynamic light scattering method; assay type: physicochemical; conditions: pH 7.6, 100 µM
[8] = Aggregation property of the compound in ammonium acetate buffer at pH 7.6 assessed as particle size at 100 uM in presence of Triton X-100 by dynamic light scattering method; assay type: physicochemical; conditions: pH 7.6, 100 µM
[9] = Aggregation property of the compound in water at pH 7 assessed as particle size at 100 uM in presence of Triton X-100 by dynamic light scattering method; assay type: physicochemical; conditions: buffer, pH 7, 100 µM
[10] = Aggregation property of the compound in water at pH 7 assessed as light scattering intensity counts at 100 uM in presence of Triton X-100 by dynamic light scattering method; assay type: physicochemical; conditions: buffer, pH 7, 100 µM
[11] = Aggregation property of the compound in water at pH 7 assessed as particle size at 100 uM in absence of Triton X-100 by dynamic light scattering method; assay type: physicochemical; conditions: buffer, pH 7, 100 µM
[12] = Aggregation property of the compound in water at pH 7 assessed as light scattering intensity counts at 100 uM in absence of Triton X-100 by dynamic light scattering method; assay type: physicochemical; conditions: buffer, pH 7, 100 µM
[13] = tested on: Mycobacterium tuberculosis; assay: Inhibition of Mycobacterium tuberculosis shikimate kinase assessed as reduction in S3P production at 100 uM pre-incubated with 0.02 uM enzyme for 30 mins before ATP and shikimate substrate addition in absence of Triton X-100 by LC-MS assay
[14] = tested on: Mycobacterium tuberculosis; assay: Inhibition of Mycobacterium tuberculosis shikimate kinase assessed as reduction in S3P production at 100 uM pre-incubated with 0.02 uM enzyme for 30 mins before ATP and shikimate substrate addition in presence of Triton X-100 by LC-MS assay
[15] = tested on: Mycobacterium tuberculosis; assay: Inhibition of Mycobacterium tuberculosis shikimate kinase assessed as reduction in S3P production at 100 uM pre-incubated with 0.2 uM enzyme for 30 mins before ATP and shikimate substrate addition in absence of Triton X-100 by LC-MS assay
[16] = tested on: Mycobacterium tuberculosis; assay: Inhibition of Mycobacterium tuberculosis shikimate kinase assessed as reduction in S3P production at 100 uM pre-incubated with 0.2 uM enzyme for 30 mins before ATP and shikimate substrate addition in presence of Triton X-100 by LC-MS assay
[17] = Inhibition of Mycobacterium tuberculosis shikimate kinase assessed as reduction in S3P production […] pre-incubated with 0.015 uM enzyme for 30 mins before ATP and shikimate substrate addition by LC-MS assay

SMILES	Activity [1]	inhibition [2]	pIC50 [3]	IC90 [4]	Activity [5]	Activity [6]	Activity [7]	Activity [8]	Activity [9]	Activity [10]	Activity [11]	Activity [12]	inhibition [13]	inhibition [14]	inhibition [15]	inhibition [16]	pIC50 [17]
CCSc1ccc(C(=O)Nc2nnc(-c3ccco3)o2)cc1	Active	> 90%	4.68	0.71 µg/mL (≈ 2.25 µM)	250 kCounts	1151 nm	100 kCounts	185 nm	182 nm	85 kCounts	1123 nm	245 kCounts					
O=C(/C=C/c1ccccc1)Nc1nnc(-c2ccc3c(c2)CCCC3)o1		> 90%		1.68 µg/mL (≈ 4.86 µM)	310 kCounts	1820 nm	141 kCounts	390 nm	353 nm	138 kCounts	1820 nm	306 kCounts	95%	0%	0%	0%	4.23
Cc1ccc(-c2nnc(NC(=O)c3ccc([N+](=O)[O-])o3)o2)c(C)c1		> 90%		0.69 µg/mL (≈ 2.1 µM)	190 kCounts	851 nm	83 kCounts	131 nm	131 nm	72 kCounts	823 nm	182 kCounts	91.6%	0%	0%	0%	4.18
